The results in this text go back to ChEMBL document CHEMBL1201862, “PubChem BioAssay data set” (2004).

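A five-concentration, 48-hour dose response in 96-well plates underlies each endpoint, interpolated linearly between surrounding concentrations. GI50 = concentration required for 50% inhibition of growth.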 Active and inactive are the calls of the source. Cut-off read from the data, not from the text of the source: active = GI50 up to about 1.1 µM and inactive = higher.

Test systems include SF-539; Hs-578T; KM12; HT-29; HOP-62; SK-MEL-2; OVCAR-3; NCI-H522; UACC-257; TK-10; HCT-116; OVCAR-8; SW-620; T47D; HOP-92; K562; COLO 205; MOLT-4; PC-3; HCT-15.
Common to all, as to experiment: DTP human tumour cell line panel, 48 h

For the compound `O=C(O)c1cccc(CC(Br)C(=O)O)c1` (stereo not given), the GI50 in the assay on SF-539, in the assay on Hs-578T, with KM12, with HT-29, in the assay with HOP-62 and with SK-MEL-2 was > 100 µM (inactive) throughout. The GI50 in the assay on OVCAR-3, in the assay with NCI-H522, with UACC-257, with TK-10, in the assay on HCT-116 and with OVCAR-8 was > 100 µM (inactive) each time. Also, the GI50 in the assay with SW-620, in the assay with T47D, with HOP-92, with K562, with COLO 205 and in the assay on MOLT-4 was > 100 µM (inactive) in each case. Further, the GI50 is > 100 µM (inactive) in the assay on PC-3 and more than 100 µM in the assay on HCT-15.
As to `CCn1c2ccc(C(=O)CCCN3CCCCC3)cc2c2cc(C(=O)CCCN3CCCCC3)ccc21`, the GI50 was 1.77 µM (inactive) with SF-539; 2.44 µM (inactive) in the assay with Hs-578T; 1.98 µM (inactive) with KM12; 1.39 µM (inactive) in the assay on HT-29; 3.3 µM (inactive) with HOP-62; 1.78 µM (inactive) in the assay with SK-MEL-2. For the same compound, the GI50 in the assay on OVCAR-3 is 2.11 µM (inactive); in the assay on NCI-H522, 1.56 µM (inactive); in the assay with UACC-257 it was 1.9 µM (inactive); in the assay on TK-10, 2.91 µM (inactive); with HCT-116 it was 1.78 µM (inactive); with OVCAR-8 it was 1.44 µM (inactive). The GI50 with SW-620 was 1.01 µM (active); in the assay on T47D, 24.2 µM (inactive); in the assay with HOP-92, 10.4 µM (inactive); in the assay with K562, 2.97 µM (inactive); in the assay with COLO 205, 2.67 µM (inactive); with MOLT-4, 0.524 µM (active). Also, the figures for the GI50 with PC-3 and in the assay on HCT-15 were 2.13 µM (inactive) and 1.86 µM, respectively.
With `Oc1c(OCc2nnc(CCCCCCCCc3nnc(COc4ccc5ccccc5c4O)n3Nc3ccccc3)n2Nc2ccccc2)ccc2ccccc12`, the GI50 in the assay on SF-539 is 3.98 µM (inactive); in the assay with Hs-578T, 8.17 µM (inactive); in the assay on KM12, 3 µM (inactive); in the assay with HT-29 it was 8.28 µM (inactive); in the assay on HOP-62, 0.261 µM (active); with SK-MEL-2, 9.12 µM (inactive). Besides, the GI50 with OVCAR-3 was 8.02 µM (inactive); with NCI-H522, 7.08 µM (inactive); in the assay on UACC-257, 4.21 µM (inactive); in the assay on TK-10, 11.1 µM (inactive); in the assay on HCT-116, 9.2 µM (inactive); in the assay on OVCAR-8, 11.2 µM (inactive). Moreover, the GI50 in the assay with SW-620 was 10.4 µM (inactive); in the assay on T47D, 6.43 µM (inactive); with HOP-92, 15.7 µM (inactive); with K562, 0.515 µM (active); in the assay with COLO 205, 0.558 µM (active); with MOLT-4, 12.7 µM (inactive). Also, the GI50 with PC-3 was 2.1 µM (inactive); in the assay on HCT-15, 11.4 µM.
`CC(C)OP(=O)(OC(C)C)C(C)(C)O`: the GI50 with SF-539, in the assay on Hs-578T, with KM12, in the assay on HT-29, in the assay with HOP-62 and with SK-MEL-2 was > 100 µM (inactive) in each case. Further, the GI50 in the assay with OVCAR-3, in the assay with NCI-H522, with UACC-257, in the assay with TK-10, in the assay on HCT-116 and in the assay with OVCAR-8 was > 100 µM (inactive) in each case. Also, the GI50 in the assay with SW-620, in the assay on T47D, in the assay with HOP-92, in the assay with K562, in the assay with COLO 205 and in the assay on MOLT-4 was > 100 µM (inactive) throughout. Besides, the GI50 in the assay on PC-3 is > 100 µM (inactive); in the assay on HCT-15, more than 100 µM.

One may read the GI50 as the concentration giving 50% growth inhibition.
